The test system of assay [1] is HCV replicons (HCV type 1b, Huh-7 luc/neo cells). The assay can be described thus: Replicon assay (Huh-Luc cells, luciferase read-out). The following applies: Hepatitis C virus, Huh-7, 72 h, Huh-Luc cells, incubation of three days, luciferase activity. The assay is classed as cell-based. An excerpt:
The compounds of formula (I) were examined for activity in the inhibition of HCV RNA replication in a cellular assay. […] The cellular assay was based on a bicistronic expression construct, as described by Lohmann et al. (1999) Science vol. 285 pp. 110-113 with modifications described by Krieger et al. (2001) Journal of Virology 75: 4614-4624, in a multi-target screening strategy. In essence, the method was as follows.
The assay utilized the stably transfected cell line Huh-7 luc/neo (hereafter referred to as Huh-Luc). This cell line harbors an RNA encoding a bicistronic expression construct comprising the wild type NS3-NS5B regions of HCV type 1b translated from an Internal Ribosome Entry Site (IRES) from encephalomyocarditis virus (EMCV), preceded by a reporter portion (FfL-luciferase), and a selectable marker portion (neo^R, neomycine phosphotransferase). The construct is bordered by 5′ and 3′ NTRs (non-translated regions) from HCV type 1b. Continued culture of the replicon cells in the presence of G418 (neo^R) is dependent on the replication of the HCV RNA. The stably transfected replicon cells that express HCV RNA, which replicates autonomously and to high levels, encoding inter alia luciferase, are used for screening the antiviral compounds.
The replicon cells were plated in 384 well plates in the presence of the test and control compounds which were added in various concentrations. Following an incubation of three days, HCV replication was measured by assaying luciferase activity (using standard luciferase assay substrates and reagents and a Perkin Elmer ViewLux™ ultraHTS microplate imager). Replicon cells in the control cultures have high luciferase expression in the absence of any inhibitor. The inhibitory activity of the compound on luciferase activity was monitored on the Huh-Luc cells, enabling a doseresponse curve for each test compound.
(In general: Replicon systems follow genome replication, usually without infectious particles.)

Assay [2] deals with T1, HCV NS3/4A protease complexes (full-length hepatitis C NS3 protease enzyme with NS4A cofactor) (Hepatitis C virus genotype 1a, UniProt P27958).
T1 construct: full-length hepatitis C NS3 protease enzyme
In words: Inhibition assay (enzymatic assay, depsipeptide substrate hydrolysis). The assay is classed as biochemical. The following applies: enzyme 1 nM, 25 μM NS4A cofactor, 0.5 μM substrate, 30° C., pH 7.5, model for competitive inhibition. The protocol: [Landro, 1997 #Biochem 36 9340-9348]. […] The solutions were stored at −20° C. between measurements.
[Liu, 1999 Analytical Biochemistry 267 331-335].

In patent US8012939B2 (Tibotec Pharmaceuticals Ltd. Co, priority 2005, dated 2011) one finds EC50 and Ki data, which are given here for 18 molecules.

Broadly, the EC50 is the midpoint of the concentration-response curve. What is called Ki is a measure of affinity in units of concentration, obtained from inhibition or displacement. Read a high Ki as a looser hold on the target.

Bounds are passed on as bounds.

T1 sequence (P27958 1027-1657, one chain of several): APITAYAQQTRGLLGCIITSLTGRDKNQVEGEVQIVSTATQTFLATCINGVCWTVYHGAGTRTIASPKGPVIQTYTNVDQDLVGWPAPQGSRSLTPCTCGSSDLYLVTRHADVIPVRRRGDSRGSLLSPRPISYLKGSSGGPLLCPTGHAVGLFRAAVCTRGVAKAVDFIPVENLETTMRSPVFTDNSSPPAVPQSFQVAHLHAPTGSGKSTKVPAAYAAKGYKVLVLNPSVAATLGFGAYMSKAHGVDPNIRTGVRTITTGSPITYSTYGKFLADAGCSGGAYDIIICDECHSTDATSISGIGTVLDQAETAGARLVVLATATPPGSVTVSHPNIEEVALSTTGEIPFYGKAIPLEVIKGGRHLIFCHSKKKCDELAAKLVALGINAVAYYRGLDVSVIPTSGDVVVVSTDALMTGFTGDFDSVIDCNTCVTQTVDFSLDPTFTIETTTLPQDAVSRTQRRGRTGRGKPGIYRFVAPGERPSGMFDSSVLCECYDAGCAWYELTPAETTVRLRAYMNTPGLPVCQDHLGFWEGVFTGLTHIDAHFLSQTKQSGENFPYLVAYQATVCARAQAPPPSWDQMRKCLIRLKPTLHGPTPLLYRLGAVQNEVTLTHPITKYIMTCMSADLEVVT

Regarding `COc1ccc2c(O[C@@H]3C[C@H]4C(=O)N[C@]5(C(=O)NS(=O)(=O)C6CC6)C[C@H]5/C=C\CCCCN(C)C(=O)[C@@H]4C3)nc(-c3nc(C(C)C)cs3)cc2c1` [Compound 32, N-[17-[3-(4-isopropylthiazol-2-yl)-6-methoxyisoquinolin-1-yloxy]-13-methyl-2,14-dioxo-3,13-diazatricyclo[13.3.0.0^4,6]octadec-7-ene-4-carbonyl](cyclopropyl)sulfonamide], the EC50 in assay [1] stood at 3570 nM. The same molecule showed a Ki in assay [2] of 1.4 nM.

With `COc1ccc2c(O[C@@H]3C[C@H]4C(=O)N[C@]5(C(=O)NS(=O)(=O)C6CC6)C[C@H]5/C=C\CCCCN(C)C(=O)N4C3)nccc2c1-c1ccc(C)nc1` [Compound 52], the EC50 in assay [1] is greater than 10000 nM.

For the molecule `COc1ccc2c(OC3CC4C(=O)NC5(C(=O)O)CC5C=CCCCCN(C)C(=O)C4C3)nc(-c3nc(C4CC4)cs3)cc2c1` (centres unmarked) [Compound 29, 17-[3-(4-cyclopropylthiazol-2-yl)-6-methoxy-isoquinolin-1-yloxy]-13-methyl-2,14-dioxo-3,13-diazatricyclo[13.3.0.0^4,6]octadec-7-ene-4-carboxylic acid], the concentration for a half-maximal effect (EC50) in assay [1] is greater than 10000 nM. The Ki in assay [2] turned out to be 150 nM.

As for `COc1ccc2c(O[C@@H]3C[C@H]4C(=O)N[C@]5(C(=O)NS(=O)(=O)C6CC6)C[C@H]5/C=C\CCCCN(C)C(=O)[C@@H]4C3)nc(-c3csc(NC(C)C)n3)cc2c1` [Compound 34, N-[17-[3-(2-isopropylaminothiazol-4-yl)-6-methoxyisoquinolin-1-yloxy]-13-methyl-2,14-dioxo-3,13-diazatricyclo[13.3.0.0^4,6]octadec-7-ene-4-carbonyl](cyclopropyl)sulfonamide], the EC50 in assay [1] came to 1640 nM. This molecule yielded a Ki in assay [2] of 3.3 nM.

Turning to `COc1ccc2c(O[C@@H]3C[C@H]4C(=O)N[C@]5(C(=O)O)C[C@H]5/C=C\CCCCN(C)C(=O)N4C3)nccc2c1` [Compound 55, 17-(6-methoxyisoquinolin-1-yloxy)-13-methyl-2,14-dioxo-3,13,15-triaza-tricyclo[13.3.0.0^4,6]octadec-7-ene-4-carboxylic acid], the EC50 in assay [1] is greater than 100000 nM. The molecule also came in with a Ki in assay [2] greater than 1000 nM.

Regarding `COc1ccc2c(O[C@@H]3C[C@H]4C(=O)N[C@]5(C(=O)O)C[C@H]5/C=C\CCCCN(C)C(=O)[C@@H]4C3)nc(-c3nc(C(C)C)cs3)cc2c1` [Compound 31, 17-[3-(4-isopropylthiazol-2-yl)-6-methoxyisoquinolin-1-yloxy]-13-methyl-2,14-dioxo-3,13-diazatricyclo[13.3.0.0^4,6]octadec-7-ene-4-carboxylic acid], the EC50 in assay [1] was greater than 10000 nM. This molecule also yielded a Ki in assay [2] of 300 nM.

For the molecule `COc1ccc2c(O[C@@H]3C[C@H]4C(=O)N[C@]5(C(=O)O)C[C@H]5/C=C\CCCCN(C)C(=O)N4C3)nc(-n3cccn3)cc2c1` [Compound 67, 17-(3-pyrazol-1-yl-6-methoxyisoquinolin-1-yloxy)-13-methyl-2,14-dioxo-3,13,15-triaza-tricyclo[13.3.0.0^4,6]octadec-7-ene-4-carboxylic acid], the EC50 in assay [1] was greater than 10000 nM. In assay [2], the inhibitory constant (Ki) is greater than 1000 nM.

In the case of `COc1ccc2c(O[C@@H]3C[C@H]4C(=O)N[C@]5(C(=O)NS(=O)(=O)C6CC6)C[C@H]5/C=C\CCCCN(C)C(=O)N4C3)nccc2c1-c1ccccc1` [Compound 54, N-[17-[5-phenyl-6-methoxyisoquinolin-1-yloxy]-13-methyl-2,14-dioxo-3,13,15-triaza-tricyclo[13.3.0.0^4,6]octadec-7-ene-4-carbonyl](cyclopropyl) sulfonamide], the EC50 in assay [1] is greater than 10000 nM.

Consider `COc1ccc2c(O[C@@H]3C[C@H]4C(=O)N[C@]5(C(=O)NS(=O)(=O)C6CC6)C[C@H]5/C=C\CCCCN(C)C(=O)[C@@H]4C3)nc(-c3nc(C4CC4)cs3)cc2c1` [Compound 30, N-[17-[3-(4-cyclopropylthiazol-2-yl)-6-methoxyisoquinolin-1-yloxy]-13-methyl-2,14-dioxo-3,13-diazatricyclo[13.3.0.0^4,6]octadec-7-ene-4-carbonyl](cyclopropyl)sulfonamide], for which the EC50 in assay [1] is 3030 nM. In addition, the Ki in assay [2] was determined as 1.7 nM.

`COc1ccc2c(O[C@@H]3C[C@H]4C(=O)N[C@]5(C(=O)O)C[C@H]5/C=C\CCCCN(C)C(=O)[C@@H]4C3)nc(-c3csc(NC(C)C)n3)cc2c1` [Compound 33, 17-[3-(2-isopropylaminothiazol-4-yl)-6-methoxyisoquinolin-1-yloxy]-13-methyl-2,14-dioxo-3,13-diazatricyclo[13.3.0.0^4,6]octadec-7-ene-4-carboxylic acid]: the EC50 in assay [1] worked out at 47500 nM. Moreover, in assay [2], the Ki is greater than 1000 nM.

For the molecule `COc1ccc2c(O[C@@H]3C[C@H]4C(=O)N[C@]5(C(=O)O)C[C@H]5/C=C\CCCCN(C)C(=O)N4C3)nc(-c3csc(NC(C)C)n3)cc2c1` [Compound 71, 17-[3-(2-isopropylaminothiazol-4-yl)-6-methoxyisoquinolin-1-yloxy]-13-methyl-2,14-dioxo-3,13,15-triaza-tricyclo[13.3.0.0^4,6]octadec-7-ene-4-carboxylic acid], in assay [1], the EC50 is greater than 10000 nM.

Regarding `COc1ccc2c(O[C@@H]3C[C@H]4C(=O)N[C@]5(C(=O)O)C[C@H]5/C=C\CCCCN(C)C(=O)N4C3)nccc2c1Br` [Compound 50, 17-(5-bromo-6-methoxyisoquinolin-1-yloxy)-13-methyl-2,14-dioxo-3,13,15-triazatricyclo[13.3.0.0^4,6]octadec-7-ene-4-carboxylic acid], the inhibitory constant (Ki) in assay [2] is greater than 1000 nM.

With `COc1ccc2c(O[C@@H]3C[C@H]4C(=O)N[C@]5(C(=O)O)C[C@H]5/C=C\CCCCN(C)C(=O)N4C3)nc(-c3ccc(OC(F)(F)F)cc3)cc2c1` [Compound 57, 17-(3-(4-trifluoromethoxyphenyl)-6-methoxyisoquinolin-1-yloxy)-13-methyl-2,14-dioxo-3,13,15-triaza-tricyclo[13.3.0.0^4,6]octadec-7-ene-4-carboxylic acid], in assay [1], the EC50 was 8090 nM. The molecule further returned a Ki in assay [2] of 210 nM.

As to `COc1ccc2c(O[C@@H]3C[C@H]4C(=O)N[C@]5(C(=O)NS(=O)(=O)C6CC6)C[C@H]5/C=C\CCCCN(C)C(=O)N4C3)nc(-c3nc(C(C)C)cs3)cc2c1` [Compound 70, N-[17-[3-(4-isopropylthiazol-2-yl)-6-methoxyisoquinolin-1-yloxy]-13-methyl-2,14-dioxo-3,13,15-triaza-tricyclo[13.3.0.0^4,6]octadec-7-ene-4-carbonyl](cyclopropyl)sulfonamide], the EC50 in assay [1] was found to be 6730 nM. In assay [2], this molecule returned a Ki of 33 nM.

As to `COc1ccc2c(O[C@@H]3C[C@H]4C(=O)N[C@]5(C(=O)NS(=O)(=O)C6CC6)C[C@H]5/C=C\CCCCN(C)C(=O)N4C3)ncc(Br)c2c1` [Compound 66, N-[17-(4-bromo-6-methoxyisoquinolin-1-yloxy)-13-methyl-2,14-dioxo-3,13,15-triaza-tricyclo[13.3.0.0^4,6]octadec-7-ene-4-carbonyl](cyclopropyl) sulfonamide], the EC50 in assay [1] stood at 323 nM.

Take `COc1ccc2c(O[C@@H]3C[C@H]4C(=O)N[C@]5(C(=O)NS(=O)(=O)C6CC6)C[C@H]5/C=C\CCCCN(C)C(=O)N4C3)nc(Cl)cc2c1` [Compound 43, N-[17-(3-chloro-6-methoxyisoquinolin-1-yloxy)-13-methyl-2,14-dioxo-3,13,15-triaza-tricyclo[13.3.0.0^4,6]octadec-7-ene-4-carbonyl](cyclopropyl) sulfonamide]: the EC50 in assay [1] came to 2100 nM. The same molecule displayed a Ki in assay [2] of 15 nM.

Regarding `COc1ccc2c(O[C@@H]3C[C@H]4C(=O)N[C@]5(C(=O)NS(=O)(=O)C6CC6)C[C@H]5/C=C\CCCCN(C)C(=O)N4C3)nc(-c3ccc(OC(F)(F)F)cc3)cc2c1` [Compound 58, N-[17-(3-(4-trifluoromethoxyphenyl)-6-methoxyisoquinolin-1-yloxy)-13-methyl-2,14-dioxo-3,13,15-triaza-tricyclo[13.3.0.0^4,6]octadec-7-ene-4-carbonyl](cyclopropyl)sulfonamide], in assay [1], the EC50 stood at 2310 nM.

As to `COc1ccc(-c2c(OC)ccc3c(O[C@@H]4C[C@H]5C(=O)N[C@]6(C(=O)NS(=O)(=O)C7CC7)C[C@H]6/C=C\CCCCN(C)C(=O)N5C4)nccc23)cc1` [Compound 53, N-[17-[5-(4-methoxyphenyl)-6-methoxyisoquinolin-1-yloxy]-13-methyl-2,14-dioxo-3,13,15-triaza-tricyclo[13.3.0.0^4,6]octadec-7-ene-4-carbonyl](cyclopropyl)sulfonamide], in assay [1], the EC50 is greater than 10000 nM.
